System: cerebral vessels
Method: These are the symptoms upon presentation in the neurological clinic. Transcranial Doppler analysis of all cerebral vessels is performed in addition to analyzing the common carotid artery and the internal carotid artery.
The physician considers prescription of Plavix together with a calcium channel blocker. Transcranial Doppler analysis was performed at monthly intervals. […] The physician subsequently administers a higher dose. Again, transcranial Doppler analysis is performed on all cerebral vessels.
The patient is then monitored on a monthly basis after the initial prescription of Plavix in order to determine whether vascular changes are occurring which necessitate alteration in the therapy.

[1] = same patient, higher dose, transcranial Doppler on all cerebral vessels

`COC(=O)[C@H](c1ccccc1Cl)N1CCc2sccc2C1` [Plavix] was tested, and the “changes in the individual cerebral vessels” value (person after first stroke, Plavix +/- calcium channel blocker, initial dose, transcranial Doppler at monthly intervals) was “no effect on the cerebral vessels”, the auto-regulation curve [1] was “left-shifts toward normal” and the pulsatility index [1] was “decreases”.

Source: US7104958B2, “Systems and methods for investigating intracranial pressure” (New Health Sciences, Inc., priority 2001, dated 2006)
